Results on 2 compounds are retold here after publication PMC3416963 (Biochemistry, 2012).

This test concerns the target LigI (Sphingobium sp. SYK-6, UniProt O87170). In words: spectrophotometric PDC hydrolysis at […] nm. In kind it is biochemical.

Chain of LigI (O87170 2-293): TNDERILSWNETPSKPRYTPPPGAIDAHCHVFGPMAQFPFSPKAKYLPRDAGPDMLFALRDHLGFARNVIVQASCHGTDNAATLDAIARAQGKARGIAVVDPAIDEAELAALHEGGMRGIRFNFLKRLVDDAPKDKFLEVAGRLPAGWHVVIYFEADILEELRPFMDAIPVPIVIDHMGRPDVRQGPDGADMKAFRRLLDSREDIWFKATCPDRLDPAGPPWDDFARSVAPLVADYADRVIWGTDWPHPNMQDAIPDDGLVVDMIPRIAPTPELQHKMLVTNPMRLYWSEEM

For the compound `O=C(O)c1cc(O)cc(C(=O)O)c1` [compound 5, 5-hydroxyisophthalic acid], the affinity, expressed as Ki, was 40 ± 3 µM.
Next, `O=C(O)c1ccnc(C(=O)O)c1` [compound 2, pyridine-2,4-dicarboxylic acid]: 75 ± 2 µM.
